From the supplement of paper PMC10307832

Tests used:
Assay in all cases: relative viability (nuclei count vs DMSO), 5 days (fraction); higher = more cells survive
Salubrinal + Palbociclib = compound: O=C(/C=C/c1ccccc1)NC(NC(=S)Nc1cccc2cccnc12)C(Cl)(Cl)Cl [Salubrinal] + CC(=O)c1c(C)c2cnc(Nc3ccc(N4CCNCC4)cn3)nc2n(C2CCCC2)c1=O [Palbociclib] (partner 0.5 µM)
How it was run: (§1)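 Relative viability equals treated-well nuclei counts divided by vehicle-well nuclei counts. Counts came from 4× images of lung cancer cell lines grown in 1536-well plates for 5 days after pin-tool dosing on the day after seeding. Dosing used one drug alone or a fixed anchor-drug dose plus five library-drug doses (not always all listed) in √10 steps, and values are medians of duplicate plates.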

Salubrinal + AZD7762 = compound: O=C(/C=C/c1ccccc1)NC(NC(=S)Nc1cccc2cccnc12)C(Cl)(Cl)Cl [Salubrinal] + NC(=O)Nc1cc(-c2cccc(F)c2)sc1C(=O)N[C@H]1CCCNC1 [AZD7762] (partner 0.2 µM)
How it was run: as §1

[1] = compound: Cc1ccc2nc(NCCN)c3ncc(C)n3c2c1 + Cc1nc(NC(=O)N2CCC[C@H]2C(N)=O)sc1-c1ccnc(C(C)(C)C(F)(F)F)c1 [Alpelisib] (partner 2 µM)
How it was run: as §1

Salubrinal + Bortezomib = compound: O=C(/C=C/c1ccccc1)NC(NC(=S)Nc1cccc2cccnc12)C(Cl)(Cl)Cl [Salubrinal] + CC(C)C[C@H](NC(=O)[C@H](Cc1ccccc1)NC(=O)c1cnccn1)B(O)O [Bortezomib] (partner 0.002 µM)
How it was run: as §1

| Cell Line | relative viability (Salubrinal + Palbociclib; first compound 0.08 µM) | relative viability (Salubrinal + Palbociclib; first compound 0.253 µM) | relative viability (Salubrinal + Palbociclib; first compound 0.8 µM) | relative viability (Salubrinal + Palbociclib; first compound 2.53 µM) | relative viability (Salubrinal + Palbociclib; first compound 8 µM) | relative viability (Salubrinal + AZD7762; first compound 0.08 µM) | relative viability (Salubrinal + AZD7762; first compound 0.253 µM) | relative viability (Salubrinal + AZD7762; first compound 0.8 µM) | relative viability (Salubrinal + AZD7762; first compound 2.53 µM) | relative viability (Salubrinal + AZD7762; first compound 8 µM) | relative viability ([1]; first compound 0.04 µM) | relative viability ([1]; first compound 0.1265 µM) | relative viability ([1]; first compound 0.4 µM) | relative viability ([1]; first compound 1.265 µM) | relative viability ([1]; first compound 4 µM) | relative viability (Salubrinal + Bortezomib; first compound 0.08 µM) | relative viability (Salubrinal + Bortezomib; first compound 0.253 µM) | relative viability (Salubrinal + Bortezomib; first compound 0.8 µM) | relative viability (Salubrinal + Bortezomib; first compound 2.53 µM) | relative viability (Salubrinal + Bortezomib; first compound 8 µM) |
| --- | --- | --- | --- | --- | --- | --- | --- | --- | --- | --- | --- | --- | --- | --- | --- | --- | --- | --- | --- | --- |
| NCI-H522 | 1.1 | 1.21 | 0.956 | 0.94 | 1.13 | 0.99 | 0.808 | 0.957 | 0.808 | 0.908 | – | – | – | – | – | – | – | – | – | – |
| HCC-15 | 0.832 | 0.589 | 0.844 | 0.777 | 0.703 | 1.4 | 1.22 | 1.28 | 1.25 | 1.25 | 0.879 | 0.906 | 0.93 | 0.868 | 0.814 | 1.13 | 0.804 | 1.14 | 1.15 | 0.997 |
| A-427 | 0.57 | 0.527 | 0.562 | 0.502 | 0.538 | 0.892 | 0.716 | 0.755 | 0.802 | 0.67 | 1.09 | 1.13 | 1.05 | 1.07 | 1.14 | 0.96 | 0.908 | 1.12 | 0.961 | 1.06 |
| NCI-H2228 | 0.613 | – | 1.04 | 0.752 | 0.567 | – | – | – | – | – | 0.626 | 0.639 | 0.974 | 0.832 | 0.613 | 1.08 | 1.18 | 1.26 | 0.983 | 0.876 |
| NCI-H1734 | 0.393 | 0.334 | 0.392 | 0.344 | 0.343 | 0.596 | 0.657 | 0.613 | 0.572 | 0.515 | 0.699 | 0.634 | 0.668 | 0.605 | 0.685 | 0.9 | 0.941 | 1.11 | 0.969 | 0.981 |
| PC-14 | 0.708 | 0.434 | 0.609 | 0.47 | 0.384 | 0.485 | 0.422 | 0.418 | 0.365 | 0.367 | 1.03 | 0.893 | 0.92 | 0.896 | 0.806 | 0.94 | 0.639 | 0.979 | 1 | 0.874 |
| NCI-H1915 | 0.506 | – | 0.576 | 0.559 | 0.568 | 0.713 | – | 0.718 | 0.71 | 0.676 | 0.999 | – | 1.1 | 1.02 | 1.07 | 0.98 | 0.56 | 1.09 | 1.03 | 0.954 |
| NCI-H1666 | 0.687 | 0.593 | 0.632 | 0.641 | 0.603 | 0.793 | 0.863 | 0.831 | 0.704 | 0.926 | 0.836 | 0.906 | 1.13 | 0.945 | 0.613 | 0.858 | 0.732 | 0.746 | 0.776 | 0.984 |
| HCC-366 | 0.464 | – | 0.44 | 0.385 | 0.315 | 0.254 | – | 0.315 | 0.272 | 0.146 | 0.552 | 0.329 | 0.455 | 0.433 | 0.276 | 1.21 | 0.608 | 1.22 | 1.08 | 1.05 |
| NCI-H2170 | 0.436 | 0.326 | 0.447 | 0.395 | 0.372 | 0.953 | 0.942 | 0.995 | 0.792 | 0.878 | 0.844 | 0.805 | 0.801 | 0.805 | 0.67 | – | – | – | – | – |
| SW 1573 | 0.445 | 0.355 | 0.378 | 0.374 | 0.3 | – | – | – | – | – | 0.81 | 0.667 | 0.871 | 0.572 | 0.676 | 1.36 | 0.779 | 1.27 | 0.834 | 0.982 |
| NCI-H661 | 0.424 | 0.436 | 0.412 | 0.412 | 0.398 | – | – | – | – | – | 0.82 | 0.79 | 0.812 | – | 0.474 | 0.876 | 0.781 | 0.714 | 0.821 | 0.865 |
| PC-3 [JPC-3] | 0.514 | 0.579 | 0.539 | 0.28 | 0.629 | 0.833 | 0.67 | 0.923 | 0.928 | 0.671 | 1.03 | 1.08 | 1.05 | 0.983 | 1.03 | 0.775 | 0.718 | 0.89 | 0.863 | 0.75 |
| NCI-H2342 | 0.465 | 0.516 | 0.552 | 0.49 | 0.531 | 0.445 | 0.503 | 0.552 | 0.517 | 0.552 | – | – | – | – | – | – | – | – | – | – |
| Calu-6 | – | – | – | – | – | – | – | – | – | – | 1.05 | 0.923 | 1.01 | 1.04 | 0.719 | 1.18 | 0.856 | 1.11 | 1.01 | 0.918 |
| LC-2-ad | 0.499 | 0.403 | 0.586 | 0.478 | 0.403 | 0.946 | 0.832 | 0.89 | 0.823 | 0.647 | 0.953 | 0.827 | 0.86 | 1 | 0.875 | 0.992 | 0.92 | 1.16 | 1 | 1.02 |
| CAL-12T | 0.459 | 0.42 | 0.676 | 0.436 | 0.328 | 0.625 | 0.657 | 0.741 | 0.577 | 0.619 | 1.17 | 1.11 | 1.3 | 1.25 | 0.992 | 0.983 | 0.899 | 1.54 | 0.915 | 0.998 |
| RERF-LC-KJ | 1.14 | 1.04 | 1.13 | 1.09 | 0.964 | 1.05 | 0.917 | 1.1 | 0.999 | 0.885 | 0.843 | 0.769 | 0.784 | 0.762 | 0.81 | 1.29 | 0.984 | 1.24 | 1.03 | 1.15 |
| NCI-H1650 | 0.314 | 0.297 | 0.334 | 0.366 | 0.375 | – | – | – | – | – | – | – | – | – | – | 0.217 | 0.227 | 0.256 | 0.173 | 0.243 |
